Reference: PMC7663272, “Discovery of Tricyclic Pyranochromenone as Novel Bruton’s Tyrosine Kinase Inhibitors with In Vivo Antirheumatic Activity” (International Journal of Molecular Sciences, 2020)

Columns and labels:
[1] = target: T1, TXK (Homo sapiens, UniProt P42681); experiment: HotSpot kinase enzymatic assay, TXK; assay type: biochemical
T1 construct: purchased Reaction Biology Corporation
T1 sequence (P42681 1-527): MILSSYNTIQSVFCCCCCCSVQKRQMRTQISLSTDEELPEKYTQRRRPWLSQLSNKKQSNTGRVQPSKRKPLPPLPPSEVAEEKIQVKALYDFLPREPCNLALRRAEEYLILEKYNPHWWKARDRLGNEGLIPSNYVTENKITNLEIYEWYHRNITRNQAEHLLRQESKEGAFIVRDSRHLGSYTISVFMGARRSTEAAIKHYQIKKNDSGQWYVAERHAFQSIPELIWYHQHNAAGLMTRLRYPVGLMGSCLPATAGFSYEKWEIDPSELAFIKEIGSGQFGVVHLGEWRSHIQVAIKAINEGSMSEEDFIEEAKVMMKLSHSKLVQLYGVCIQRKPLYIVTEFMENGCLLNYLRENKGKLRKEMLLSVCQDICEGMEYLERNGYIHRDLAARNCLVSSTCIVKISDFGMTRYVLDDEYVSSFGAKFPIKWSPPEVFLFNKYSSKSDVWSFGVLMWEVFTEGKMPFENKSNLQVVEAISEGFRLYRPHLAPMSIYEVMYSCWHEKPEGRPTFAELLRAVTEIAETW
Procedure: Therefore, efforts have focused on developing new compounds with good selectivity profiles. […] Compound 8 was selective against BTK. The biochemical activities of compound 8 differed among TEC family kinases. […] The inhibitory potential of compound 8 differed between members of the EGFR family. […] The inhibitory activity of compound 8 against JAK3 was also low.
Kinase enzymatic assays for BTK, BMX, TXK, TEC, ITK, EGFR, ERBB2, ERBB4, and JAK3 were performed at Reaction Biology Corporation (www.reactionbiology.com, Malvern, PA, USA) using the HotSpot assay platform. Briefly, specific kinase/substrate pairs and the required cofactors were prepared in a reaction buffer comprising 20 mM HEPES (pH 7.5), 10 mM MgCl2, 1 mM EGTA, 0.02% Brij35, 0.02 mg/mL BSA, 0.1 mM Na3VO4, 2 mM DTT, and 1% DMSO. The compounds were added to the reaction mixture and allowed to incubate. Approximately 20 min later, a mixture of ATP (Sigma-Aldrich, St. Louis, MO, USA) and ^33P ATP (PerkinElmer, Waltham, MA, USA) was added to the reaction mixture at a final concentration of 10 μM. The reactions were performed at room temperature for 120 min; subsequently, the reactions were spotted onto P81 ion exchange filter papers (Whatman Inc., Maidstone, UK). Any unbound phosphate was removed by thoroughly washing the filter papers with 0.75% phosphoric acid. […]

[2] = target: T2, CYP2C19 (Homo sapiens, UniProt P33261); experiment: P450-Glo CYP inhibition assay, CYP2C19; assay type: in vitro ADME
T2 construct: purchased Promega V9880
Procedure: The potential for CYP450 inhibition (CYP1A2, 2C9, 2C19, 2D6, and […]) was assessed using Promega P450-Glo^TM CYP450 assay systems. Luciferin-ME served as the substrate for CYP1A2, and the inhibitor α-naphthoflavone was used as a positive control. Luciferin-H was used as the substrate for CYP2C9, and the inhibitor sulfaphenazole was used as a positive control. Luciferin-H EGE was selected as the substrate for CYP2C19, whereas the inhibitor amitriptyline served as a positive control. Luciferin-ME EGE was used as the substrate for CYP2D6, whereas the inhibitor quinidine served as a positive control. Luciferin-BE was used as the substrate for CYP3A4, whereas the inhibitor ketoconazole was used as a positive control. The assays were performed using the excitation and emission wavelengths recommended by the manufacturer. Briefly, a CYP enzyme and a P450-Glo™ substrate were combined in potassium phosphate (0.1 M KPO4) buffer, with or without a test compound of interest, and […]. The reaction was initiated by adding two volumes of 2 times concentrated NADPH regeneration system. […] Luminescence was subsequently measured using a Tecan Infinite M1000 PRO microplate reader (Tecan Group Ltd., Switzerland). The percent inhibition was calculated relative to that of the positive control at a fixed concentration. […]

T2 sequence (P33261 whole entry): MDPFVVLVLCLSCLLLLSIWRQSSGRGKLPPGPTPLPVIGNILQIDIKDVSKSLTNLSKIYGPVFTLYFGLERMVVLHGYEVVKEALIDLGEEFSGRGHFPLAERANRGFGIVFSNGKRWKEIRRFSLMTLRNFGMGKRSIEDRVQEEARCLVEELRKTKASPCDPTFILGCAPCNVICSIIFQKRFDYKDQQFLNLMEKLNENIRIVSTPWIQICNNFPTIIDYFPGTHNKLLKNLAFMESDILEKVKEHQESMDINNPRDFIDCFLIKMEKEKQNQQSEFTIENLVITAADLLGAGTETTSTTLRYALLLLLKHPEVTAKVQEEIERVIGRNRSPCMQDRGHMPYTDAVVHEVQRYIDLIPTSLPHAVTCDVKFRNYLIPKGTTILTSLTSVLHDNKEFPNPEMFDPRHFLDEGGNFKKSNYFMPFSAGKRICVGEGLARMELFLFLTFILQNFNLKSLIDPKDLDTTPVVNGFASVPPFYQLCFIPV

Structure (SMILES): C=CC(=O)O[C@H]1Cc2cc3ccc(=O)oc3cc2OC1(C)C [Compound 8, (7S)-(+)-Acrylic acid, 8,8-dimethyl-2-oxo-6,7-dihydro-2H,8H-pyrano [3,2-g]chromen-7-yl ester]
- inhibitory activity against TXK (in words) [1]: strong inhibitory activity
- inhibition at 10 µM ([1]; 10 µM, mean of two experiments): 88.5%
- CYP2C19 inhibition (in words) [2]: moderately inhibited
- CYP inhibition 2C19 ([2]; % inhibition of human CYP isozymes at 10 μM): 48.2%
